Reference: PMC5654082 (Malaria Journal, 2017)
Counter-ions that a name gives are not always drawn.

Molecular target: T1, human OCT2 (Homo sapiens, UniProt O15244)
T1 construct: host or cells: HEK293, baculovirus transduction (CMV promoter), transient
T1 sequence (O15244 1-555): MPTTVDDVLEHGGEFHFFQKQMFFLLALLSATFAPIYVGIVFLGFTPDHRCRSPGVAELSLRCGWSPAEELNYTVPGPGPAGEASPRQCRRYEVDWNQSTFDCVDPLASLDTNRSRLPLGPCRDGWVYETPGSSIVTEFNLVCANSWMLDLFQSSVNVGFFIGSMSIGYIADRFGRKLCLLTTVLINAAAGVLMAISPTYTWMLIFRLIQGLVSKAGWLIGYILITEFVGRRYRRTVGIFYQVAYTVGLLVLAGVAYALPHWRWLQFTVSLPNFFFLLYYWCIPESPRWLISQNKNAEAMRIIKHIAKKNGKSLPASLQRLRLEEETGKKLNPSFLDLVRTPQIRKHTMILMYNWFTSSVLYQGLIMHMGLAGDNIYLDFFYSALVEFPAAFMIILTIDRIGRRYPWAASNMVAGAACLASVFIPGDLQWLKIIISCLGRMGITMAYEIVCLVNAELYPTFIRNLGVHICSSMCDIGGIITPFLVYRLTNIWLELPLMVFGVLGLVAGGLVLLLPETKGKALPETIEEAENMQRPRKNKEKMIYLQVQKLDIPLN
Test: Inhibition of OCT2-mediated ASP uptake in transduced HEK293 cells
Format: cell-based
Details: 10 µM ASP, 10 min, 37 °C
Protocol: HEK293 cells were modified to transiently express (a combination of) human OCT1, OCT2, MATE1, MATE2-K, or eYFP. Briefly, cDNA of the respective genes was cloned downstream of a CMV promoter into a baculovirus, of which passage three was used to transduce HEK293 cells. These cells were seeded in poly-D-lysine coated 24- or 96-wells plates and grown in a 37 °C incubator at 5% CO2. […] After 24 h, cells were transduced with 30 µL virus (10 µL virus + 20 µL complete medium in case of 96-wells plates) or 2 × 15 µL virus for cells that required simultaneous expression of two transporters. Finally, 195 µL sodium butyrate (45 µL for 96-wells plates) was added to a final concentration of 2 mM to enhance protein expression.
AMO (10 mM), ASP (1 mM), CQ (10 mM), PQ (10 mM) and PG (10 mM) were dissolved in MilliQ water. ART (10 mM), ATO (10 mM), DHA (10 mM), LUM (10 mM), MQ (10 mM), NMQ (20 mM), PYR (10 mM), QN (10 mM) were dissolved in DMSO. All compound stocks were stored at − 20 °C. Inhibition of OCT1- or OCT2-mediated ASP uptake by anti-malarials was performed in poly-D-lysine coated 96-wells plates 2 or 3 days following HEK293 cell transduction. In short, cells were washed with 125 µL 37 °C HBSS containing 10 mM HEPES, pH 7.4. […] ASP transport was stopped by washing with 125 µL ice-cold HBSS-HEPES buffer supplemented with 0.5% BSA.
For each compound, a range of seven concentrations was used to determine the concentration at which ASP uptake was inhibited half maximally (IC50). At least three independent experiments (4 for QN) were performed for each drug in triplicate as described above. […] To generate the final dose–response inhibition curve per anti-malarial, percentage of uptake was averaged for each drug concentration per experiment and the resulting mean ± SEM corresponding to three or four independent experiments were plotted.

`[H]/N=C(\N/C(=N/[H])Nc1ccc(Cl)cc1)NC(C)C` [Proguanil, proguanil hydrochloride] was tested, and the IC50 (seven concentrations) was 13 µM and the “Relative ASP uptake (OCT2-mediated)” value (50 µM anti-malarial, relative to solvent control fixed at 100%) was 19 ± 7%.
